Experimental findings from ChEMBL document CHEMBL4265970, “2'-Aryl and 4'-arylidene substituted pyrazolones: As potential α-amylase inhibitors” (Eur J Med Chem, 2018) are described below.

The target in data set [1] is T1, Alpha amylase (Homo sapiens, UniProt P0DUB6).
T1 sequence (P0DUB6 whole entry): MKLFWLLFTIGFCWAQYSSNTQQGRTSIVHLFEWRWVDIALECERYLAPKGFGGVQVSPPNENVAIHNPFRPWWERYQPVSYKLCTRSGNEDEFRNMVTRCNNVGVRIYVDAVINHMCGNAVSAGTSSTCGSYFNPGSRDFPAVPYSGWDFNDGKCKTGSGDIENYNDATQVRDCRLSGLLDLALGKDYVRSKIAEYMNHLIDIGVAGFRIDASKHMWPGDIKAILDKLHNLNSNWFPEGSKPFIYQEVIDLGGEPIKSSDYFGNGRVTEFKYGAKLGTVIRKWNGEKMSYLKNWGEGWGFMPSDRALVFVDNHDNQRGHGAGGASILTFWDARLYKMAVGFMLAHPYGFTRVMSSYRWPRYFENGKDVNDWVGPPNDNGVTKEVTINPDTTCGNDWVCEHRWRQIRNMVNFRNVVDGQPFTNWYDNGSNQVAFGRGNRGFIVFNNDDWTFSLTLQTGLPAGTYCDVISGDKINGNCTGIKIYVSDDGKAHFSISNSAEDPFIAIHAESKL
In words: Inhibition of alpha-amylase (unknown origin) using starch as substrate preincubated for 10 mins followed by substrate addition measured after 10 mins by dinitrosalicylic acid color reagent based assay.

Data set [2] addresses T1, Alpha amylase. The experiment in a line: Mixed-type inhibition of alpha-amylase (unknown origin) using p-nitrophenylR-D-maltoside as substrate incubated for 30 mins at 1 min time interval.
Data set [3] deals with COc1cc(/C=C2/C(=O)N(c3ccc(Cl)cc3)N=C2C)cc(OC)c1Br. In words: (§1) Mixed-type inhibition of alpha-amylase (unknown origin) assessed as Vmax for substrate using p-nitrophenylR-D-maltoside as substrate incubated for 30 mins at 1 min time interval. As to conditions: Homo sapiens.
Data set [4] deals with COc1ccc(/C=C2/C(=O)N(c3ccc(Cl)cc3)N=C2C)c(Cl)c1OC. Described as §1. As to conditions: Homo sapiens.
For data set [5], the system named is CC1=NN(c2ccc(Cl)cc2)C(=O)/C1=C/c1cc(Cl)cc(Cl)c1O. Described as §1. As to conditions: Homo sapiens.
Data set [6] concerns COc1ccc(/C=C2/C(=O)N(c3ccc(Cl)cc3)N=C2C)cc1Br. The description is as §1. The following applies: Homo sapiens.
The test system of data set [7] is COc1cc(/C=C2/C(=O)N(c3ccc(Cl)cc3)N=C2C)ccc1OC(C)=O. Described as §1. As to conditions: Homo sapiens.
Data set [8] concerns COc1cc(/C=C2/C(=O)N(c3ccc(Cl)cc3)N=C2C)c(OC)cc1Br. The description is as §1. The following applies: Homo sapiens.
The test system of data set [9] is CC1=NN(c2ccc(Cl)cc2)C(=O)/C1=C/c1ccc(Br)cc1. The description is as §1. The following applies: Homo sapiens.
Data set [10] deals with CC1=NN(c2ccc(Cl)cc2)C(=O)/C1=C/c1cc(F)ccc1Br. Described as §1. As to conditions: Homo sapiens.
Data set [11] concerns COc1cc(/C=C2/C(=O)N(c3ccc(Cl)cc3)N=C2C)cc(OC)c1Br. In words: (§2) Mixed-type inhibition of alpha-amylase (unknown origin) assessed as Km for substrate using p-nitrophenylR-D-maltoside as substrate incubated for 30 mins at 1 min time interval. As to conditions: Homo sapiens.
The test system of data set [12] is COc1ccc(/C=C2/C(=O)N(c3ccc(Cl)cc3)N=C2C)c(Cl)c1OC. The data set is described as §2. As to conditions: Homo sapiens.
Data set [13] has as its system CC1=NN(c2ccc(Cl)cc2)C(=O)/C1=C/c1cc(Cl)cc(Cl)c1O. The data set is described as §2. The following applies: Homo sapiens.
The test system of data set [14] is COc1ccc(/C=C2/C(=O)N(c3ccc(Cl)cc3)N=C2C)cc1Br. Described as §2. The following applies: Homo sapiens.
Data set [15] deals with COc1cc(/C=C2/C(=O)N(c3ccc(Cl)cc3)N=C2C)ccc1OC(C)=O. The description is as §2. As to conditions: Homo sapiens.
For data set [16], the system named is COc1cc(/C=C2/C(=O)N(c3ccc(Cl)cc3)N=C2C)c(OC)cc1Br. The data set is described as §2. The following applies: Homo sapiens.
The subject of data set [17] is CC1=NN(c2ccc(Cl)cc2)C(=O)/C1=C/c1ccc(Br)cc1. The data set is described as §2. The following applies: Homo sapiens.
The test system of data set [18] is CC1=NN(c2ccc(Cl)cc2)C(=O)/C1=C/c1cc(F)ccc1Br. The data set is described as §2. As to conditions: Homo sapiens.

Take `COc1cc(/C=C2/C(=O)N(c3ccc(Cl)cc3)N=C2C)cc(OC)c1`: the IC50 (usually the point on the concentration scale where inhibition reaches its midpoint) on Alpha amylase [1] was determined as 2.21 µM.
Take `COc1ccc(/C=C2/C(=O)N(c3ccc(Cl)cc3)N=C2C)c(OC)c1`: the IC50 at Alpha amylase [1] amounted to 2.01 µM.
With `COc1ccc(/C=C2/C(=O)N(c3ccc(Cl)cc3)N=C2C)c(Cl)c1OC`, on Alpha amylase [2], the Ki (in general, the dissociation constant of the complex between target and ligand, obtained from inhibition or displacement) amounted to 3.54 µM. The same compound showed a half-maximal inhibitory concentration (IC50) against Alpha amylase [1] of 1.97 µM.
On Alpha amylase [2], `COc1cc(/C=C2/C(=O)N(c3ccc(Cl)cc3)N=C2C)cc(OC)c1Br` displayed a Ki of 3.24 µM. On Alpha amylase [1], this compound came in with an IC50 of 1.68 µM.
On the same counts, the results for `CC1=NN(c2ccc(Cl)cc2)C(=O)/C1=C/c1cc(F)ccc1Br` are 3.42 µM and 1.93 µM.
Compound `COc1ccc(/C=C2/C(=O)N(c3ccc(Cl)cc3)N=C2C)c(OC)c1OC` yielded an IC50 against Alpha amylase [1] of 2.1 µM.
Same read-out and setting: the figure for `CC1=NN(c2ccc(Cl)cc2)C(=O)/C1=C/c1c[nH]c2ccccc12` is 2.16 µM.
On to `COc1cc(/C=C2/C(=O)N(c3ccc(Cl)cc3)N=C2C)ccc1OC(C)=O`, for which, at Alpha amylase [2], the Ki worked out at 2.98 µM. For the same compound, on Alpha amylase [1], the IC50 stood at 1.94 µM.
`COc1cc(/C=C2/C(=O)N(c3ccc(Cl)cc3)N=C2C)c(OC)cc1Br` displayed a Ki at Alpha amylase [2] of 3.12 µM. At Alpha amylase [1], this compound returned an IC50 of 1.86 µM.
On to `COc1cc(/C=C2/C(=O)N(c3ccc(Cl)cc3)N=C2C)ccc1OCc1ccccc1`, for which, at Alpha amylase [1], the concentration for half-maximal inhibition (IC50) was 2.33 µM.
Same read-out and setting: the figure for `COc1ccc(OC)c(/C=C2/C(=O)N(c3ccc(Cl)cc3)N=C2C)c1` is 2.13 µM.
As for `CC1=NN(c2ccc(Cl)cc2)C(=O)/C1=C/c1cc(Cl)cc(Cl)c1O`, at Alpha amylase [2], the Ki is 4.26 µM. The same compound returned an IC50 at Alpha amylase [1] of 1.61 µM.
On the same counts, the results for `CC1=NN(c2ccc(Cl)cc2)C(=O)/C1=C/c1ccc(Br)cc1` are 3.84 µM and 1.92 µM.
As for “Alpha amylase (Homo sapiens) (from UniProt P0DUB6)”, the Vmax – broadly, the rate approached at saturating substrate – in [3] is 65.2 µM/min; in [4], 70.6 µM/min; in [5], 79.7 µM/min; in data set [6], 68.3 µM/min; in data set [7], 70.5 µM/min; in data set [8] it was 71.4 µM/min. The Vmax is 73.4 µM/min in data set [9] and 71.2 µM/min in [10]. The Km (commonly the substrate concentration at which the rate is half of its maximum) in [11] is 2.92 mM; in data set [12] it was 3.14 mM; in data set [13], 3.4 mM; in data set [14], 2.86 mM; in data set [15], 2.9 mM; in [16], 3.04 mM. Also, the results for the Km in data set [17] and in data set [18] were 3.26 mM and 3.11 mM, respectively.
Regarding `COc1ccccc1/C=C1/C(=O)N(c2ccc(Cl)cc2)N=C1C`, the IC50 on Alpha amylase [1] was found to be 2.02 µM.
On the same count and under the same terms, the figure for `COc1ccc(/C=C2/C(=O)N(c3ccc(Cl)cc3)N=C2C)cc1OC` is 2.03 µM.
In turn, `COc1ccc(/C=C2/C(=O)N(c3ccc(Cl)cc3)N=C2C)cc1Br` gave a Ki on Alpha amylase [2] of 3.84 µM. This compound came in with an IC50 against Alpha amylase [1] of 1.92 µM.
Consider `COc1cc(/C=C2/C(=O)N(c3ccc(Cl)cc3)N=C2C)cc(OC)c1OC`, for which, at Alpha amylase [1], the IC50 turned out to be 2.19 µM.
Turning to `CC1=NN(c2ccc(Cl)cc2)C(=O)/C1=C/c1ccc([N+](=O)[O-])cc1`, on Alpha amylase [1], the IC50 was found to be 2.38 µM.
